Laboratory results from publication PMC5951806, “Rapid labelling and covalent inhibition of intracellular native proteins using ligand-directed N-acyl-N-alkyl sulfonamide” (Nature Communications, 2018).

Columns and labels:
[1] = molecular target: T1, Isoform 2 of Calcium-binding mitochondrial carrier protein Aralar2 (SLC25A13) (Homo sapiens, UniProt Q9UJS0); assay: TMT LC-MSMS of 11-labelled proteins; assay type: cell-based
T1 sequence (Q9UJS0 2-676 isoform Q9UJS0-2): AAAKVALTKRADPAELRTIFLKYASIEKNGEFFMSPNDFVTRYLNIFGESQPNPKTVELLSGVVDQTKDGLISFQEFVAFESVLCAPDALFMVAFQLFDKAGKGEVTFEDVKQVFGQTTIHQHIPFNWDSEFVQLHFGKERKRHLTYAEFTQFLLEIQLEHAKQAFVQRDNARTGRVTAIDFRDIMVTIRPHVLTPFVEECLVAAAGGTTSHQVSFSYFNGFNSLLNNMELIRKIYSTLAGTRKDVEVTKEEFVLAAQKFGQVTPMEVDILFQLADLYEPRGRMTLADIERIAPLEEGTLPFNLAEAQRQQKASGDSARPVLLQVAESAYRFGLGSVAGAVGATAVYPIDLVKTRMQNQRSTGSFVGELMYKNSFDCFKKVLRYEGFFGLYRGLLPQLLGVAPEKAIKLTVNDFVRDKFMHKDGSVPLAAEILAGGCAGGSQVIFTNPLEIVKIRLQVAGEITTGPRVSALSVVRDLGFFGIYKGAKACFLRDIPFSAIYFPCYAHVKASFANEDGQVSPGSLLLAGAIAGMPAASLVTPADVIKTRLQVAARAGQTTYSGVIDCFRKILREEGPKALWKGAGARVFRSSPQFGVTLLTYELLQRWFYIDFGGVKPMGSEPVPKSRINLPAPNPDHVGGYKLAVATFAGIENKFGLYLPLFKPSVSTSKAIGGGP

[2] = molecular target: T2, Isoform 1 of Voltage-dependent anion-selective channel protein 2 (VDAC2) (Homo sapiens, UniProt P45880); assay: TMT LC-MSMS of 11-labelled proteins; assay type: cell-based
T2 sequence (P45880 12-294 limits assumed): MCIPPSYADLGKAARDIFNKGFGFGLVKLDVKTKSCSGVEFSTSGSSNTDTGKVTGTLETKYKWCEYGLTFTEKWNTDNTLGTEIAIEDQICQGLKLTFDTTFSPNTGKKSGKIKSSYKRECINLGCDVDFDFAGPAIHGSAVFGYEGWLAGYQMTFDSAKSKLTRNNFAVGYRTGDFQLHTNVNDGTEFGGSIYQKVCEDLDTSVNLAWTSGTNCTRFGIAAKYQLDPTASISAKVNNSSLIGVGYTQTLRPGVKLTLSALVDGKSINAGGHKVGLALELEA

[3] = sheet Merged, SKBR3 cells, 11 0.5 µM 3 h vs DMSO
[4] = sheet Merged, SKBR3 cells, 11 0.5 µM 3 h vs with PU-H71 10 µM

Abundance Ratio: (11) / (11 with PU-H71) ([1]; sheet Exp2, SLC25A13): 0.894 | Abundance Ratio: (11) / (DMSO) ([1]; sheet Exp2, SLC25A13): 2.324 | Abundances (Grouped): 11 ([1]; sheet Exp2, SLC25A13): 24.4 | Abundances (Grouped): 11 with PU-H71 ([1]; sheet Exp2, SLC25A13, with PU-H71): 27.3 | Abundance Ratio: (11) / (DMSO) [1, 3]: 2.324 | Abundance Ratio: (11) / (11 with PU-H71) [1, 4]: 0.894 | Abundance Ratio: (11) / (11 with PU-H71) ([2]; Exp3, VDAC2): 0.617 | Abundance Ratio: (11) / (DMSO) ([2]; Exp3, VDAC2): 3.942 | Abundances (Grouped): 11 ([2]; Exp3, VDAC2): 149 | Abundances (Grouped): 11 with PU-H71 ([2]; Exp3, VDAC2, with PU-H71): 241.6 | Abundance Ratio: (11) / (DMSO) ([2]; sheet Exp1, SKBR3 cells, 11 0.5 µM 3 h vs DMSO): 2.647 | Abundance Ratio: (11) / (11 with PU-H71) ([2]; sheet Exp1, SKBR3 cells, 11 0.5 µM 3 h vs with PU-H71 10 µM): 0.676 | Abundance Ratio: (11) / (DMSO) [2, 3]: 2.786 | Abundance Ratio: (11) / (11 with PU-H71) [2, 4]: 0.688
Structure (SMILES): CC(=O)Oc1ccc2c(c1)Oc1cc(OC(C)=O)ccc1C21OC(=O)c2cc(C(=O)NCCOCCOCCNC(=O)CCCC(=O)N(CC#N)S(=O)(=O)c3ccc(C(=O)NCCCn4c(Sc5cc6c(cc5I)OCO6)nc5c(N)ncnc54)cc3)ccc21 [compound 11]
